Laboratory results published in patent US20160113931A1, “Method of treating and/or preventing neurodegenerative diseases” (University of Macau, priority 2014, published 2016).
pIC50: −log10 of the molar value. Entries after “also recorded” stand apart in the source; their conditions may differ.

Legend:
[1] = test system: SH-SY5Y cells; assay: MPP+-induced LDH leakage in SH-SY5Y cells (LDH assay); format: cell-based, human; details: 2 h pre-treatment, MPP+ 36 h, MPP+ alone 209%, normalized to control
Description: Cells were pre-treated with BHDPC (3, 10 and 30 μM) for 2 h and then incubated with or without 1 mM MPP^+ for further 24 h. Cell viability was measured by the MTT assay.
Cell cytotoxicity was also determined by measuring the activity of LDH released into the incubation medium when cellular membranes were damaged. Cells were seeded at 96-well plates (5×10^3 cells/well). After treatment, the released LDH activity in the medium was measured according to the instructions of the Cytotoxicity Detection Kit (Roche Applied Science, Mannheim, Germany). Absorbance at 490 nm was measured using SpectraMax M5. All values of LDH released were normalized to the control group.
The protective activity of BHDPC was also confirmed by the lactate dehydrogenase (LDH) assay. SH-SY5Y cells were treated with BHDPC for 2 h before exposed to MPP^+ for 36 h.

[2] = test system: caspase 3; assay: Caspase 3 activity assay in SH-SY5Y cells; format: cell-based, human
Description: After pre-treatment with 30 μM BHDPC or 0.1% DMSO (vehicle control) for 2 h, SH-SY5Y cells were incubated with or without 2 mM MPP^+ for another 36 h. (FIG. 6A) Δψm was determined by the JC-1 assay.
After treatment, the activity of caspase 3 was measured using the commercially available EnzChek Caspase-3 Assay Kit (Invitrogen, USA) according to the manufacturer's protocol. Briefly, SH-SY5Y cells were lysed in lysis buffer and centrifuged at 12,500×g for 5 min. 15 μL of cell lysate was incubated with 50 μL of 2× substrate working solution at room temperature for 30 min in 96-well plates. The fluorescence intensity was then determined by a SpectraMax M5 microplate reader at an excitation wavelength of 490 nm and emission at 520 nm. The fluorescence intensity of each sample was normalized to the protein concentration of sample. All values of % caspase 3 activities were normalized to the control group.
Caspase 3 activation plays a key role in the execution-phase of the apoptosis.

[3] = test system: PKA/CREB/Bcl2 signaling pathway; assay: Western blotting of phosphorylated PKA, phosphorylated CREB and Bcl2 in SH-SY5Y cells; format: cell-based, human
Description: Cells were pre-treated with 30 μM BHDPC for 2 h.
Cells were pre-treated with BHDPC (3, 10 and 30 μM) for 2 h and then were collected at 120 min. […] The expression ratios of phosphorylated PKA, phosphorylated CREB and Bcl2 proteins as detected by Western blotting with specific antibodies were shown in FIGS. 8B, 8C and 8D respectively.
After treatment, SH-SY5Y cells were collected and washed three times with ice-cold PBS. Then the harvested cells were lysed on ice for 30 min in RIPA lysis buffer containing 1% PMSF and 1% Protease Inhibitor Cocktail and centrifuged at 12,500×g for 20 min at 4° C. The supernatant was collected and protein concentrations were determined using the BCA protein assay kit (Thermo Scientific Pierce). Aliquots of protein samples (30 μg) were boiled for 5 min at 95° C. and electrophoresed on SDS-PAGE (10% (w/v) polyacrylamide gel) and then transferred to a polyvinylidene difluoride (PVDF) membrane (Bio-Rad, Hercules, Calif.). Subsequently, the membrane was blocked with 5% (w/v) non-fat milk in PBST (PBS containing 0.1% Tween-20) for 2 h at room temperature. The blots were incubated overnight at 4° C. with primary antibodies. After washed with PBST for 20 min at room temperature, the membranes were further incubated with horseradish peroxidase-conjugated secondary antibodies for 2 h at room temperature. Finally, protein bands were visualized using an ECL plus Western blotting detection reagents (GE Healthcare, Piscataway, N.J., USA). The membranes were then scanned on a Bio-Rad ChemiDoc XRS Imaging System and the intensity of the protein bands were analyzed using the Bio-Rad Quantity One Software (4.5.2).
To determine which survival signaling pathway is regulated by BHDPC, SH-SY5Y cells were pre-treated with 30 μM BHDPC for 2 h, and then the phosphorylation of PKA at […] were examined by Western blot analysis. […] The inventors also determined whether BHDPC affected the phosphorylation of CREB. […] Bcl2 is a well-known anti-apoptotic protein. The inventors determined whether BHDPC affected the expression of Bcl2.

[4] = test system: SH-SY5Y cells; assay: Effect of PKA inhibitor H89 on BHDPC neuroprotection under MPP+ cytotoxicity; format: cell-based, human; details: with H89
Excerpt: To further confirm the involvement of PKA activation in the protective effects of BHDPC, H89, a PKA inhibitor was used to measure cell survival under MPP^+ cytotoxicity (FIG. 9).

[5] = test system: primary cortical neurons; assay: MPP+-induced neuronal death in primary cortical neurons (LDH release); format: cell-based, rat; details: 2 h pre-treatment, 200 μM MPP+ 24 h
Description: Primary culture of cortical neurons was prepared from embryonic day 18±0.5 Sprague-Dawley rats. One day after seeding, primary cortical neurons were treated with 10 and 30 μM BHDPC for 14 days. Fourteen days following BHDPC treatment, primary cortical neurons cultured on glass coverslips (Thermo Scientific) were fixed with 4% paraformaldehyde for 15 min. Following fixation, neurons were permeabilized with 0.1% Triton X-100 in Tris-buffered saline for 7 min, and blocked with 4% bovine serum albumin and 2% goat serum for 1 h. α-tubulin and MAP2 were incubated at 1:400 dilution for 1 h at room temperature and overnight at 4° C. respectively. Following primary antibody incubation, neurons were incubated with Alexa Flour 488 or 568 secondary antibodies (anti-rabbit or anti-mouse) at 1:400 dilution for 1 h at room temperature. […] Fluorescence intensity was measured using Image J.
Cell cytotoxicity was also determined by measuring the activity of LDH released into the incubation medium when cellular membranes were damaged. […] After treatment, the released LDH activity in the medium was measured according to the instructions of the Cytotoxicity Detection Kit (Roche Applied Science, Mannheim, Germany). Absorbance at 490 nm was measured using SpectraMax M5. […]
LDH release was measured at 24 hours after the MPP^+ challenge.

[6] = molecular target: ROCK1 (Homo sapiens, UniProt Q13464); assay: Kinase activity assay ROCK1; format: biochemical
Excerpt: ROCK has two isoforms (ROCK1 and ROCK2) sharing the same downstream proteins. Bioassay and molecular docking are used to compare the characteristics of BHDPC on ROCK. […] Through molecular docking and molecular dynamics simulation, the interaction between the inhibitor and ROCK1 was shown in FIG. 17.

ROCK1, sequence (Q13464 whole entry, species assumed, canonical isoform): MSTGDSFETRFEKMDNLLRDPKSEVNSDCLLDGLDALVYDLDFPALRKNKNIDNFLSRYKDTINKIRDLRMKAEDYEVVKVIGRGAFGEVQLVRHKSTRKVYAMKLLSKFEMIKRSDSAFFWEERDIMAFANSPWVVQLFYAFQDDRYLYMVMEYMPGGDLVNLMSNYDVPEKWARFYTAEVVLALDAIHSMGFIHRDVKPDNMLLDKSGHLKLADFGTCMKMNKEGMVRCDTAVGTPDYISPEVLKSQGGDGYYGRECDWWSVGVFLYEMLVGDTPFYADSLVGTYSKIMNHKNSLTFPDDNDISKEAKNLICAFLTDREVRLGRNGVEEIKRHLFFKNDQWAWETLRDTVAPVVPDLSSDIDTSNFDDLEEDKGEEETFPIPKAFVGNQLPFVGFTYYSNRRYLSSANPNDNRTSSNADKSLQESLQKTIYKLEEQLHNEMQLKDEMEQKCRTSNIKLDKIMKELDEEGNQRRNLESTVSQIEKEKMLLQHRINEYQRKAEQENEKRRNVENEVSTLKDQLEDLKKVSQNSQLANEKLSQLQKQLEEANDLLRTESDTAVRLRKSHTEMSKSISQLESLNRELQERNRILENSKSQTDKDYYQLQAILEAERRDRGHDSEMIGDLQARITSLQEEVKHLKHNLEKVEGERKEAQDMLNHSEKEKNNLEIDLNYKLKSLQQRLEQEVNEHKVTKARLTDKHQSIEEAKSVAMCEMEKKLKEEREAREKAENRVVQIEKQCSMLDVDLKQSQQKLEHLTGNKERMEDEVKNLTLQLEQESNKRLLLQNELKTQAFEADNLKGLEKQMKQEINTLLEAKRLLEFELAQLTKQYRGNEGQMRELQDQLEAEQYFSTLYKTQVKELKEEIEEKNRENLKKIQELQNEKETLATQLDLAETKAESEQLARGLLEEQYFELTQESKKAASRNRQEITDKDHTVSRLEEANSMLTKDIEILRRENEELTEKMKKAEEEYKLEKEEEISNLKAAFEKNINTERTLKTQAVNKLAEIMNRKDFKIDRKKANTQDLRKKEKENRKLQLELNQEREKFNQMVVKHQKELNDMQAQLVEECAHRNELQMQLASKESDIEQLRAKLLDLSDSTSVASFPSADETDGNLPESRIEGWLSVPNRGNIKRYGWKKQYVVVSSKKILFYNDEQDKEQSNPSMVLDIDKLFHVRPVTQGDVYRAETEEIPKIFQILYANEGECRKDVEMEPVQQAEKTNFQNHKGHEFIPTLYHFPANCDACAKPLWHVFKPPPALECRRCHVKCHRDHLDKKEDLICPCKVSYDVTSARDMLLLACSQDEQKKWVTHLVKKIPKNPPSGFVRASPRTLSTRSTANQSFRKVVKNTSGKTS

For COc1cc(C2C(C(=O)OCc3ccccc3)=C(C)Nc3nnnn32)ccc1O (stereo not shown) [BHDPC, benzyl 7-(4-hydroxy-3-methoxyphenyl)-5-methyl-4,7-dihydrotetrazolo[1,5-a]pyrimidine-6-carboxylate], the “MPP+-induced LDH leakage” value ([1]; 3 μM) was 200%, the “MPP+-induced LDH leakage” value ([1]; 10 μM) was 184% and the “MPP+-induced LDH leakage” value ([1]; 30 μM) was 170%. The “MPP+-induced caspase 3 activation” value ([2]; 30 μM pre-treatment, 2 mM MPP+ 36 h) was “significantly reduced; also recorded: attenuated”, the “caspase 3 activity” value ([2]; BHDPC alone, without MPP+) was “did not affect caspase 3 activity” and the “phosphorylation intensity of PKA, time course” value ([3]; 30 μM, 0 to 120 min, particularly at 90 and 120 min) was “gradually increased; also recorded: activated PKA signaling pathway”. For the same compound, the “expression of Bcl2, dose-dependent” value ([3]; 3, 10 and 30 μM, 2 h) was “up-regulated”, the “phosphorylation intensity of CREB, dose-dependent” value ([3]; 3, 10 and 30 μM, 2 h) was “increased” and the “phosphorylation intensity of PKA, dose-dependent” value ([3]; 3, 10 and 30 μM, 2 h) was “increased”. The “neuroprotective effect of BHDPC in presence of PKA inhibitor H89” value [4] was “abolished”, the “MPP+-induced neuronal death (LDH release)” value [5] was “prevented MPP^+-induced neuronal death” and the “affinity ROCK1 versus ROCK2” value ([6]; from IC50 values) was “better affinity for ROCK1 than ROCK2”. The pIC50 ([6]; kinase activity assay) was 4.86.
